Data published in US20250368667A1, “USP1 INHIBITOR” (Shanghai Qilu Pharmaceutical Research and Development …, priority 2022, published 2025).

These compounds were tested against recombinant human His6-USP1/His6-UAF1 composite protein (Homo sapiens (Human), UniProt O94782) (assay: USP1 enzyme activity detection (Ub-Rho fluorescence)). Details: USP1/UAF1, Ub-Rho substrate 300 nM, 1 hour pre-incubation; read-out: IC50 (enzymatic inhibition of USP1).
Chain of recombinant human His6-USP1/His6-UAF1 composite protein (O94782 whole entry): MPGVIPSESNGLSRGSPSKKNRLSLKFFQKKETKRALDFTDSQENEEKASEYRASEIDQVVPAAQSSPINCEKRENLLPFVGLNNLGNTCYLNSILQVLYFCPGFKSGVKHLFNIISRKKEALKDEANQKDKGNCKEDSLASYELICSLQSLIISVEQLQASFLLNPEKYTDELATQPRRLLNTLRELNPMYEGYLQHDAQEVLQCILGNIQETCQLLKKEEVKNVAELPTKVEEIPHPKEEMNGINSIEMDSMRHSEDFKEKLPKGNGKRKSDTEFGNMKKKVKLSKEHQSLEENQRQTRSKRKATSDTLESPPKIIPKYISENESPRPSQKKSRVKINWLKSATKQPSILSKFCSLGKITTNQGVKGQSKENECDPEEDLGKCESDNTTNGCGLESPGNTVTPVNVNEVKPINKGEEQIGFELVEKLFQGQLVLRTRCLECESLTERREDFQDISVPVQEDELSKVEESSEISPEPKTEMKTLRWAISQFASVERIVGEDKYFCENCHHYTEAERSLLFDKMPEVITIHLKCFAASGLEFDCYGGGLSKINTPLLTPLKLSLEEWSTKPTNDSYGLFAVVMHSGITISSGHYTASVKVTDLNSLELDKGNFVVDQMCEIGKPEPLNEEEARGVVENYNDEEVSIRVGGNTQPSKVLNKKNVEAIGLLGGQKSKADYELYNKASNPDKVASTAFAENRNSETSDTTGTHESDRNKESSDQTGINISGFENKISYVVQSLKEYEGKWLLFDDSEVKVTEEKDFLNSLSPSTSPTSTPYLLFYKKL
Chain of recombinant human His6-USP1/His6-UAF1 composite protein (Q8TAF3 whole entry partner): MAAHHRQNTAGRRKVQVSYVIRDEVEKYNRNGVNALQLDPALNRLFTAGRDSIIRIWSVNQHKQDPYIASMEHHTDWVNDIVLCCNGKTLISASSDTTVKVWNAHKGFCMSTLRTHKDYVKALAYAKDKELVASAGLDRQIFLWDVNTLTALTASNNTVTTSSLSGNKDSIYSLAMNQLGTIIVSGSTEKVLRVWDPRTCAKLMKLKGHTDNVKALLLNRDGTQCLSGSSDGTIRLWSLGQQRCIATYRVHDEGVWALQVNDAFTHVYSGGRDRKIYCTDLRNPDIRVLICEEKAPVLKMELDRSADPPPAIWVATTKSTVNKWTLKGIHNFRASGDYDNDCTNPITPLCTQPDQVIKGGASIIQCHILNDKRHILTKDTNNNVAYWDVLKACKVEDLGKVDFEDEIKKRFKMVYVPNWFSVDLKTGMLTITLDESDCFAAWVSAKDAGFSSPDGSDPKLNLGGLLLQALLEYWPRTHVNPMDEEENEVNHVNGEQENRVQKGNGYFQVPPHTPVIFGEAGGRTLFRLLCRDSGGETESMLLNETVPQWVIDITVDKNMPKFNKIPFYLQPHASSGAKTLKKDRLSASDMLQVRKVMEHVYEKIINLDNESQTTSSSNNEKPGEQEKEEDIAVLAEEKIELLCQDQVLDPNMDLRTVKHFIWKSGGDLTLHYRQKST
Format: biochemical
`COc1ncnc(C2CC2)c1-c1ncc2c3ccc(C(C)(C)O)cc3n(Cc3ccc(-c4nc(C(F)(F)F)cn4C)cc3)c2n1` [Compound 38] gave an IC50 of 12.1 nM.
`COc1ncnc(C2CC2)c1-c1ncc2c3c(C#N)cccc3n(Cc3ccc(-c4nc(C(F)(F)F)cn4C)cc3)c2n1` [Compound 39] was tested, and the IC50 was 29.9 nM.
For `COc1ncnc(C2CC2)c1-c1ncc2c3ccc(C(F)F)cc3n(Cc3ccc(-c4nc(C(F)(F)F)cn4C)cc3)c2n1` [Compound 40], the IC50 was 15.1 nM.
`COc1ncnc(C2CC2)c1-c1ncc2c3ccc(C(F)(F)F)cc3n(Cc3ccc(-c4nc(C(F)(F)F)cn4C)cc3)c2n1` [Compound 41] gave an IC50 of 35.2 nM.
`COC(=O)c1ccc2c3cnc(-c4c(OC)ncnc4C4CC4)nc3n(Cc3ccc(-c4nc(C(F)(F)F)cn4C)cc3)c2c1` [Compound 42] showed an IC50 of 30.4 nM.
For `COc1ncnc(C2CC2)c1-c1ncc2c3cccc(Cl)c3n(Cc3ccc(-c4nc(C(F)(F)F)cn4C)cc3)c2n1` [Compound 44], the IC50 was 4.22 nM.
`CCn1cc(C(F)(F)F)nc1-c1ccc(Cn2c3cc(C(F)(F)F)ccc3c3cnc(-c4c(OC)ncnc4C4CC4)nc32)cc1` [Compound 45] was tested, and the IC50 was 4.4 nM.
Compound `COc1ncnc(C2CC2)c1-c1ncc2c3cccc(OC)c3n(Cc3ccc(-c4nc(C(F)(F)F)cn4C(C)C)cc3)c2n1` [Compound 46] has an IC50 of 3.6 nM.
Compound `COc1ncnc(C2CC2)c1-c1ncc2c3c(C(N)=O)cccc3n(Cc3ccc(-c4nc(C(F)(F)F)cn4C)cc3)c2n1` [Compound 47] has an IC50 of 5.26 nM.
`COc1ncnc(C2CC2)c1-c1ncc2c3cccc(F)c3n(Cc3ccc(-n4nc(C(F)(F)F)cc4C)cc3)c2n1` [Compound 49] was tested, and the IC50 was 21.2 nM.
Work on `CCn1cc(C(F)(F)F)nc1-c1ccc(Cn2c3cc(C#N)ccc3c3cnc(-c4c(OC)ncnc4C4CC4)nc32)cc1` [Compound 50] yielded an IC50 of 4.84 nM.
Compound `COc1ncnc(C2CC2)c1-c1ncc2c3ccc(C#N)cc3n(Cc3ccc(-c4nc(C(F)(F)F)cn4C(C)C)cc3)c2n1` [Compound 51] has an IC50 of 5.9 nM.
Compound `COc1ncnc(C2CC2)c1-c1ncc2c3cccnc3n(Cc3ccc(-c4nc(C(F)(F)F)cn4C)cc3)c2n1` [Compound 53] has an IC50 of 5.58 nM.
For `COc1ncnc(C2CC2)c1-c1ncc2c3ccc(Cl)cc3n(Cc3ccc(-c4nc(C(F)(F)F)cn4C)cc3)c2n1` [Compound 54], the IC50 was 9.88 nM.
`COc1ncnc(C2CC2)c1-c1ncc2c3ccncc3n(Cc3ccc(-c4nc(C(F)(F)F)cn4C)cc3)c2n1` [Compound 55] gave an IC50 of 7.9 nM.
Compound `COc1ncnc(C2CC2)c1-c1ncc2c3cnccc3n(Cc3ccc(-c4nc(C(F)(F)F)cn4C)cc3)c2n1` [Compound 57] has an IC50 of 14.8 nM.
`COc1ncnc(C2CC2)c1-c1ncc2c3ccc(NS(C)(=O)=O)cc3n(Cc3ccc(-c4nc(C(F)(F)F)cn4C)cc3)c2n1` [Compound 59] showed an IC50 of 7.21 nM.
`COc1ncnc(C2CC2)c1-c1ncc2c3sncc3n(Cc3ccc(-c4nc(C(F)(F)F)cn4C)cc3)c2n1` [Compound 60] was tested, and the IC50 was 5.34 nM.
Work on `COc1ncnc(C2CC2)c1-c1ncc2c3ccncc3n(Cc3ccc4c(c3)CCCn3cc(C(F)(F)F)nc3-4)c2n1` [Compound 61] yielded an IC50 of 3.14 nM.
Compound `COc1ncnc(C2CC2)c1-c1ncc2c3cccnc3n(Cc3ccc4c(c3)CCCn3cc(C(F)(F)F)nc3-4)c2n1` [Compound 63] has an IC50 of 2.74 nM.
`COc1ncnc(C2CC2)c1-c1ncc2c3ccncc3n(Cc3ccc4c(c3)CCn3cc(C(F)(F)F)nc3-4)c2n1` [Compound 65] showed an IC50 of 59.6 nM.
For `CCn1cc(C(F)(F)F)nc1-c1ccc(Cn2c3cnccc3c3cnc(-c4c(OC)ncnc4C4CC4)nc32)cc1` [Compound 66], the IC50 was 1.62 nM.
In the case of `COc1ncnc(C2CC2)c1-c1ncc2c3ccncc3n(Cc3ccc4c(ccn5cc(C(F)(F)F)nc45)c3)c2n1` [Compound 67], the IC50 is reported as 36.1 nM.
`COc1ncnc(C2CC2)c1-c1ncc2c3ccncc3n(Cc3ccc4n3CCCn3cc(C(F)(F)F)nc3-4)c2n1` [Compound 68] was tested, and the IC50 was 39.2 nM.
`COc1ncnc(C2CC2)c1-c1ncc2c3ccc(C#N)cc3n(Cc3ccc4c(c3)Cn3cc(C(F)(F)F)nc3-4)c2n1` [Compound 70] showed an IC50 of 191 nM.
Work on `COc1ncnc(C2CC2)c1-c1ncc2c3ccncc3n(Cc3ccc4c(c3)Cn3cc(C(F)(F)F)nc3-4)c2n1` [Compound 71] yielded an IC50 of 108 nM.
In the case of `COc1ncnc(C2CC2)c1-c1ncc2c3cccnc3n(Cc3ccc4c(c3)Cn3cc(C(F)(F)F)nc3-4)c2n1` [Compound 72], the IC50 is reported as 42.9 nM.
In the case of `COc1ncnc(C2CC2)c1-c1ncc2c3ccc(F)nc3n(Cc3ccc(-c4nc(C(F)(F)F)cn4C)cc3)c2n1` [Compound 73], the IC50 is reported as 4.9 nM.
Work on `CNc1ccc2c3cnc(-c4c(OC)ncnc4C4CC4)nc3n(Cc3ccc(-c4nc(C(F)(F)F)cn4C)cc3)c2n1` [Compound 74] yielded an IC50 of 4.13 nM.
`COc1ncnc(C2CC2)c1-c1ncc2c3ccncc3n(Cc3ccc4c(c3)OCCn3cc(C(F)(F)F)nc3-4)c2n1` [Compound 76] showed an IC50 of 25.3 nM.
Work on `COc1ncnc(C2CC2)c1-c1ncc2c3ccc(C#N)cc3n(Cc3cc(O)c4c(c3)OCCn3cc(C(F)(F)F)nc3-4)c2n1` [Compound 77] yielded an IC50 of 99.1 nM.
With `COc1ncnc(C2CC2)c1-c1ncc2c3ccncc3n(Cc3ccc(-c4nc(C(F)(F)F)cn4C)cc3)c2n1` [Compound 78] the IC50 was 4.39 nM.
For `CC(C)c1ccccc1-c1ncc2c3ccncc3n(Cc3ccc(-c4nc(C(F)(F)F)cn4C)cc3)c2n1` [Compound 79], the IC50 was 2.04 nM.
With `CC(C)c1ncccc1-c1ncc2c3ccncc3n(Cc3ccc(-c4nc(C(F)(F)F)cn4C)cc3)c2n1` [Compound 80] the IC50 was 6.55 nM.
`COc1cnn(C2CCC2)c1-c1ncc2c3ccncc3n(Cc3ccc(-c4nc(C(F)(F)F)cn4C)cc3)c2n1` [Compound 81] was tested, and the IC50 was 7.15 nM.
`COc1ncnc(C2CC2)c1-c1ncc2c3ccc(N(C)S(C)(=O)=O)cc3n(Cc3ccc(-c4nc(C(F)(F)F)cn4C)cc3)c2n1` [Compound 82] was tested, and the IC50 was 4.45 nM.
`COc1ncnc(C2CC2)c1-c1ncc2c3ccc(CS(C)(=O)=O)cc3n(Cc3ccc4c(c3)CCCn3cc(C(F)(F)F)nc3-4)c2n1` [Compound 83] was tested, and the IC50 was 4.62 nM.
For `CN1CCc2cccc(-c3ncc4c5ccncc5n(Cc5ccc(-c6nc(C(F)(F)F)cn6C)cc5)c4n3)c21` [Compound 84], the IC50 was 59 nM.
Compound `Cn1cc(C(F)(F)F)nc1-c1ccc(Cn2c3cnccc3c3cnc(-c4cccc5ccn(C)c45)nc32)cc1` [Compound 85] has an IC50 of 73.5 nM.
`COc1ncnc(C2CC2)c1-c1ncc2c3cn[nH]c3n(Cc3ccc(C4NC(C(F)(F)F)=CN4C(C)C)cc3)c2n1` (stereo not drawn) [Compound 89] showed an IC50 of 4.7 nM.
`COc1ncnc(C2CC2)c1-c1ncc2c3ccncc3n(Cc3ccc4c(c3)CCCCn3cc(C(F)(F)F)nc3-4)c2n1` [Compound 90] gave an IC50 of 3.65 nM.
`COc1ncnc(C2CC2)c1-c1ncc2c3ccc(C#N)cc3n(Cc3ccc4c(c3)COCCn3cc(C(F)(F)F)nc3-4)c2n1` [Compound 92] showed an IC50 of 25.9 nM.
`COc1ccc2c3cnc(-c4c(OC)ncnc4C4CC4)nc3n(Cc3ccc4c(c3)CCCn3cc(C(F)(F)F)nc3-4)c2n1` [Compound 93] showed an IC50 of 2.56 nM.
Work on `COc1ncnc(C2CC2)c1-c1ncc2c3ccc(F)nc3n(Cc3ccc4c(c3)CCCn3cc(C(F)(F)F)nc3-4)c2n1` [Compound 94] yielded an IC50 of 3.69 nM.
Work on `COc1ncnc(C2CC2)c1-c1ncc2c3ccc(P(C)(C)=O)cc3n(Cc3ccc4c(c3)CCCn3cc(C(F)(F)F)nc3-4)c2n1` [Compound 96] yielded an IC50 of 4.89 nM.
With `COc1ncnc(C2CC2)c1-c1ncc2c3ccc(NCCO)nc3n(Cc3ccc4c(c3)CCCn3cc(C(F)(F)F)nc3-4)c2n1` [Compound 97] the IC50 was 2.1 nM.
For `COc1ncnc(C2CC2)c1-c1ncc2c3ccc(N(C(C)C)S(C)(=O)=O)cc3n(Cc3ccc4c(c3)CCCn3cc(C(F)(F)F)nc3-4)c2n1` [Compound 99], the IC50 was 3.13 nM.
`COc1ncnc(C2CC2)c1-c1ncc2c3cnn(C)c3n(Cc3ccc(-c4nc(C(F)(F)F)cn4C(C)C)cc3)c2n1` [Compound 106] showed an IC50 of 4.56 nM.
`COc1ncnc(C2CC2)c1-c1ncc2c3cn(C)nc3n(Cc3ccc(-c4nc(C(F)(F)F)cn4C(C)C)c(F)c3)c2n1` [Compound 107] was tested, and the IC50 was 4.65 nM.
`COc1ncnc(C2CC2)c1-c1ncc2c3cn(C)nc3n(Cc3ccc(-c4nc(C(F)(F)F)cn4C)cc3)c2n1` [Compound 108] was tested, and the IC50 was 7.52 nM.
`COc1ncnc(C2CC2)c1-c1ncc2c3ccc(P4(=O)CCCC4)cc3n(Cc3ccc(-c4nc(C(F)(F)F)cn4C(C)C)cc3)c2n1` [Compound 109] showed an IC50 of 11.9 nM.
For `[2H]C([2H])([2H])n1cc2c3cnc(-c4c(OC)ncnc4C4CC4)nc3n(Cc3ccc(-c4nc(C(F)(F)F)cn4C(C)C)cc3)c2n1` [Compound 110], the IC50 was 9.5 nM.
`COc1ncnc(C2CC2)c1-c1ncc2c3ncncc3n(Cc3ccc4c(c3)CCCn3cc(C(F)(F)F)nc3-4)c2n1` [Compound 112] gave an IC50 of 23.9 nM.
With `COc1ncnc(C2CC2)c1-c1ncc2c3cn(C)nc3n(Cc3ccc(-c4nc(C(F)(F)F)c5n4CCC5)cc3)c2n1` [Compound 114] the IC50 was 1.89 nM.
`COc1ncnc(C2CC2)c1-c1ncc2c3cn(C)nc3n(Cc3cc(F)c(-c4nc(C(F)(F)F)cn4C)c(F)c3)c2n1` [Compound 115] showed an IC50 of 3.03 nM.
With `COc1ncnc(C2CC2)c1-c1ncc2c3ccnc(F)c3n(Cc3ccc(-c4nc(C(F)(F)F)cn4C)cc3)c2n1` [Compound 116] the IC50 was 6.48 nM.
Work on `COc1ncnc(C2CC2)c1-c1ncc2c3cc(F)cnc3n(Cc3ccc(-c4nc(C(F)(F)F)cn4C)cc3)c2n1` [Compound 117] yielded an IC50 of 3.54 nM.
`COc1ncnc(C2CC2)c1-c1ncc2c3cn(C)nc3n(Cc3ccc(-c4nc(C(F)(F)F)cn4C)c(F)c3)c2n1` [Compound 118] was tested, and the IC50 was 3.57 nM.
Work on `COc1ncnc(C2CC2)c1-c1ncc2c3ccc(C#N)cc3n(Cc3cc4c(cn3)-c3nc(C(F)(F)F)cn3CCC4)c2n1` [Compound 119] yielded an IC50 of 17.8 nM.
With `COc1ncnc(C2CC2)c1-c1ncc2c3cn(C)nc3n(Cc3ccc(-c4nc(C(F)(F)F)c5n4CCCC5)cc3)c2n1` [Compound 120] the IC50 was 1.97 nM.
With `COc1ncnc(C2CC2)c1-c1ncc2c3ccc(C(O)(C(F)(F)F)C(F)(F)F)cc3n(Cc3ccc(-c4nc(C(F)(F)F)cn4C)cc3)c2n1` [Compound 122] the IC50 was 36 nM.
`COc1ncnc(C2CC2)c1-c1ncc2c3cnn(C)c3n(Cc3ccc4c(c3)CCCn3cc(C(F)(F)F)nc3-4)c2n1` [Compound 123] gave an IC50 of 13.7 nM.
For `COc1ncnc(C2CC2)c1-c1ncc2c3ccncc3n(C3CCc4cc(-c5nc(C(F)(F)F)cn5C)ccc43)c2n1` (stereo not drawn) [Compound 124], the IC50 was 38.5 nM.
